Experiment [1] concerns the target T1, Apoptotic protease-activating factor 1 (Homo sapiens, UniProt O14727).
T1 sequence (O14727 whole entry): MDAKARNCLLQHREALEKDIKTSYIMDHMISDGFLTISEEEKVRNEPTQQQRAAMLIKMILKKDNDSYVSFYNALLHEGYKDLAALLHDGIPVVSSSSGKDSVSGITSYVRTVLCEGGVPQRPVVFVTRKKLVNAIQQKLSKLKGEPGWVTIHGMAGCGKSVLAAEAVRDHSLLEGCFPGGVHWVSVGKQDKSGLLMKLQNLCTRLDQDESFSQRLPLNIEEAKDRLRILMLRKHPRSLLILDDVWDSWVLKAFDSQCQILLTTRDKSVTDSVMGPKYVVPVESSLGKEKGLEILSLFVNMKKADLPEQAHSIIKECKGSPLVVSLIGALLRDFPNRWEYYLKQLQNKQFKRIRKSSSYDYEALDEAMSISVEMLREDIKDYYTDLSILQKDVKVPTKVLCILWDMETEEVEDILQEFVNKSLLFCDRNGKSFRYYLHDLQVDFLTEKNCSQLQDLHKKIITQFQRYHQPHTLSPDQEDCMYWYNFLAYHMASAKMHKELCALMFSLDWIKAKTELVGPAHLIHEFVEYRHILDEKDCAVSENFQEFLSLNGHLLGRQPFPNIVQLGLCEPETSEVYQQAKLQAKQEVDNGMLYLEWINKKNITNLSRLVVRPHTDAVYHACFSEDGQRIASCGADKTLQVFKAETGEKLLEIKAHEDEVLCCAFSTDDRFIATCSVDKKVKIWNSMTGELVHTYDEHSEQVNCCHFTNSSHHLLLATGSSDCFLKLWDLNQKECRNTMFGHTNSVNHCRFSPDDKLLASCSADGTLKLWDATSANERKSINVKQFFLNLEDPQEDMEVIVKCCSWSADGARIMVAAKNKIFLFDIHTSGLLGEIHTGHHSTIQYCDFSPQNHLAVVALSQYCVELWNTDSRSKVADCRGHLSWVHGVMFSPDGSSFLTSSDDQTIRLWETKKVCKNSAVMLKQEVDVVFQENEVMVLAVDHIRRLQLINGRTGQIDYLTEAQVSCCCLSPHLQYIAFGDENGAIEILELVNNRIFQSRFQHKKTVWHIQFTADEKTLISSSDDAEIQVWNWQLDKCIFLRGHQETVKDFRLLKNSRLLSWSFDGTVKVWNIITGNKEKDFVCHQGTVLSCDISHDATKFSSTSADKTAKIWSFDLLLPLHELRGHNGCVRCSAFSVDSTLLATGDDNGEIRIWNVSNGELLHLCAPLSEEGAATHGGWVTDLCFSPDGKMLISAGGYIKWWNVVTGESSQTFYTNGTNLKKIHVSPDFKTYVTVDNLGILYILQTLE
The experiment is classed as functional.

A further experiment deals with Genome polyprotein (dengue virus type 2, UniProt P29990). The experiment in a line: Dengue-2 NS5 methyltransferase inhibitors, primary screen, biochemical, confirmation dose response (AID 588689). The experiment is classed as functional.
The target of experiment [2] is T2, Tyrosyl-DNA phosphodiesterase 2 (Homo sapiens, UniProt O95551).
T2 sequence (O95551 whole entry): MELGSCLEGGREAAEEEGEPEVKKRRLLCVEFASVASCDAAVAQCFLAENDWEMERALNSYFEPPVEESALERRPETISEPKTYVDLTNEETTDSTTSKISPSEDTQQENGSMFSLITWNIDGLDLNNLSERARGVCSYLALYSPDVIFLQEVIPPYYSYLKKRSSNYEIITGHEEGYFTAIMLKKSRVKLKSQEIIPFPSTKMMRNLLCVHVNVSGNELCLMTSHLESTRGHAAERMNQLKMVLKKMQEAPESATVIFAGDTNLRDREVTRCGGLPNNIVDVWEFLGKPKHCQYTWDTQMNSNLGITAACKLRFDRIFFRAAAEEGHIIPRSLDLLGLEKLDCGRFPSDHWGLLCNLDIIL
The experiment in a line: human TDP2 enzyme inhibitors, dose response, biochemical, epi absorbance, IC50 (AID 743297).

The target of experiment [3] is T3, Replicative DNA helicase DnaB (Mycobacterium tuberculosis, UniProt P9WMR3).
T3 sequence (P9WMR3 whole entry): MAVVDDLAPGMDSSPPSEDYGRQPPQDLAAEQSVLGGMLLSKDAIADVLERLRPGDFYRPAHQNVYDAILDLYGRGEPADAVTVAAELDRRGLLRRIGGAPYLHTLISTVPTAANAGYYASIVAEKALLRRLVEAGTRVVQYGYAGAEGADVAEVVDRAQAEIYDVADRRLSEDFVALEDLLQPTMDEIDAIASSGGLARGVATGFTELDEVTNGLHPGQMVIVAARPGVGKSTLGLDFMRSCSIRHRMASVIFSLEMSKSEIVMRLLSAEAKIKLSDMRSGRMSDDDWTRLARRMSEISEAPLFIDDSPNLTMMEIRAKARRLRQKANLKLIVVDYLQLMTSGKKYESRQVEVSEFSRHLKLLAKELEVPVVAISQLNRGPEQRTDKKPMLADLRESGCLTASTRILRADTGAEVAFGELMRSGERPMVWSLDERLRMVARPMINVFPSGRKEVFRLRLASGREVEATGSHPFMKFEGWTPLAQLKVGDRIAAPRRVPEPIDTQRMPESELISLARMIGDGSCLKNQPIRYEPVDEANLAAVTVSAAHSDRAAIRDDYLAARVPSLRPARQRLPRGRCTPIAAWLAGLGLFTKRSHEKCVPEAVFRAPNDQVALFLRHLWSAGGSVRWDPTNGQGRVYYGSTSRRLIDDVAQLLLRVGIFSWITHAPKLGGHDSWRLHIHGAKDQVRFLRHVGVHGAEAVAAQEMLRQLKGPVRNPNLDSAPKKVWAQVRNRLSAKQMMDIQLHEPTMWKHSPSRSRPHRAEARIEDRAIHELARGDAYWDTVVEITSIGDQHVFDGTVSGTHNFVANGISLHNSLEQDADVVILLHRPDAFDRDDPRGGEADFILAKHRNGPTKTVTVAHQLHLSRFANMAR
The experiment in a line: DnaB intein splicing inhibitors, dose response, biochemical, cell-free fluorescence (AID 449749). Type of experiment: functional.

The structures appear in SMILES notation. Active and inactive are the calls of the source.

Chain of Genome polyprotein (P29990 2492-3391 limits assumed): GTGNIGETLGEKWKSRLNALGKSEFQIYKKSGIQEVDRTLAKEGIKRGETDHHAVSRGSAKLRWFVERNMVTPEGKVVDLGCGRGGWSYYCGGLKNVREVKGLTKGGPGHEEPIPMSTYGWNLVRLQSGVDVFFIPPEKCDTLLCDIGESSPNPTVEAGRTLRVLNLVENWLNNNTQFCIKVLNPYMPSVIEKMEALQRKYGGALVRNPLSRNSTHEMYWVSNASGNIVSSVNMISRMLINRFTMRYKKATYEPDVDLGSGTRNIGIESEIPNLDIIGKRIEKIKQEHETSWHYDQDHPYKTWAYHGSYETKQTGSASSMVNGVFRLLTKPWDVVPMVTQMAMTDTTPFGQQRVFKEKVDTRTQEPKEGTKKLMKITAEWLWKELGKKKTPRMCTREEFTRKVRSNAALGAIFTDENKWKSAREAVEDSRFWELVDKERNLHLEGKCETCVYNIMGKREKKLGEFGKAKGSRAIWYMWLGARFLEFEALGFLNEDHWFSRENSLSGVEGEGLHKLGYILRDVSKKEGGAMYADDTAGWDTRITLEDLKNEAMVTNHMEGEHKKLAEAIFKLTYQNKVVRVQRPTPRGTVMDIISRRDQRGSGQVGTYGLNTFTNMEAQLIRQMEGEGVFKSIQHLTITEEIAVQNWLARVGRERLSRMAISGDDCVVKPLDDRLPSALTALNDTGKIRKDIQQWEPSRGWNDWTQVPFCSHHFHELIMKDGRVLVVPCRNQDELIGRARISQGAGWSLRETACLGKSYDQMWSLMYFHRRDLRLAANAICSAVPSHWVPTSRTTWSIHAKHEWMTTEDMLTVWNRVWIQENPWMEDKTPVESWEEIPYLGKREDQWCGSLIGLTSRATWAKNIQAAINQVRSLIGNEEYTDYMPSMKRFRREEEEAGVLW

On to `O=C(O)c1ccc(NC2=C/C(=N/S(=O)(=O)c3ccccc3)c3ccccc3C2=O)cc1`, for which the IC50 (as a rule, the midpoint of a concentration-inhibition curve) in experiment [1] is 3.15 µM (active); on Genome polyprotein it was 17.1 µM (active); in experiment [2] it was 1.88 µM (active).
`Nc1ccc2c(c1)C(=O)C(=O)c1ccccc1-2`: the values for the IC50 in experiment [1] and in experiment [2] were 0.768 µM (active) and 1.34 µM (active), respectively. Further, the AC50 (commonly the concentration at which the activity in the assay is half-maximal) in experiment [3] was 5.32 µM (active).
For the compound `COc1cc(-c2ccc(Nc3ccccc3C(=O)O)c(OC)c2)ccc1Nc1ccccc1C(=O)O`, the values for the IC50 (in experiment [1]; at Genome polyprotein) were 26.7 µM (active) and 18.8 µM (active), respectively.
In the case of `COC(=O)[C@@H]1[C@@H](C(=O)OC)C2(c3ccccc3-c3ccccc32)N(c2ccc(Cl)cc2)N1C#N`, in experiment [3], the AC50 is > 120 µM (inactive).
For `COc1ccc(OC)c(Nc2cc3ccccc3c(O)n2)c1`, the IC50 was 2.5 µM (active) in experiment [1] and 24.9 µM (inactive) in experiment [2]. In experiment [3], the AC50 was > 120 µM (inconclusive).
As for `COC(CNC(=O)c1ccc2c3c(onc13)-c1ccccc1C2=O)OC`, the values for the IC50 (in experiment [1]; at Genome polyprotein) were 25.2 µM (active) and 4.67 µM (active), respectively. For the same compound, the AC50 in experiment [3] is 3.06 µM (active).

These data come from ChEMBL document CHEMBL1201862, “PubChem BioAssay data set” (2004).
